The values below are quoted from earlier work in patent US20200138985A1, “KIT FOR LABELING A PROSTATE-SPECIFIC MEMBRANE ANTIGEN LIGAND WITH A RADIOACTIVE ISOTOPE” (Isotopia Molecular Imaging Ltd., priority 2015, published 2020).

By Kd is commonly meant the concentration at which binding is half-saturated.

For this series, the target named is T1, PSMA (Homo sapiens, UniProt Q04609).
T1 construct: In cell research with PSMA-positive androgen-insensitive LNCaP-C4-2 cells; endogenous in cells; host or cells: LNCaP-C4-2 cells
T1 sequence (Q04609 whole entry): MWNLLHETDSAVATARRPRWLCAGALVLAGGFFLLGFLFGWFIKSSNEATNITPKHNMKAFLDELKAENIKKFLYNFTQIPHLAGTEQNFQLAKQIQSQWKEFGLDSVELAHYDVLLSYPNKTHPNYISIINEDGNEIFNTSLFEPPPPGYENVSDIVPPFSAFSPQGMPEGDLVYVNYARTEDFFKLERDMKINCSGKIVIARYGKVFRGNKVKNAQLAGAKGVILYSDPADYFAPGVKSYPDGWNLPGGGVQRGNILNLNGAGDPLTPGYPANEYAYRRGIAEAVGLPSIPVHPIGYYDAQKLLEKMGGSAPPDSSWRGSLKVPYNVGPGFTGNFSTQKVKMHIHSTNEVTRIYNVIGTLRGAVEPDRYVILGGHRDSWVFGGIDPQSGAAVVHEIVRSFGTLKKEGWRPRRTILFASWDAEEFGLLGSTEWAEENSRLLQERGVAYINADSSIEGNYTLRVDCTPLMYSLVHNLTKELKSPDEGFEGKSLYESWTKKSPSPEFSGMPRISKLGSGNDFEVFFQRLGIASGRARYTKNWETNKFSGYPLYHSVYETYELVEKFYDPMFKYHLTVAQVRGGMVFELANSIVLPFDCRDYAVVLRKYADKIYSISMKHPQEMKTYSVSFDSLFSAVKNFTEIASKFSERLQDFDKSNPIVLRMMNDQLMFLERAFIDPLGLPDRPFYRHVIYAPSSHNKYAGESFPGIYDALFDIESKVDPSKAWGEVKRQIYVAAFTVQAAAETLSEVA
As to conditions: PSMA-positive androgen-insensitive LNCaP-C4-2 cells.

Consider “(5S,8S,22S,26S)-1-amino-5,8-dibenzyl-4,7,10,19,24-pentaoxo-3,6,9,18,23,25-hexaazaoctacosane-22,26,28-tricarboxylic acid (DUPA-Pep), conjugated with 1,4,7,10-tetraazacyclododecane-N,N,N′,N″-tetraacetic acid (DOTA)”, for which the Kd was 21.6 ± 0.4 nM.

Regarding “cyclohexyl-diethylene triamine pentaacetic acid-(5S,8S,22S,26S)-1-amino-5,8-dibenzyl-4,7,10,19,24-pentaoxo-3,6,9,18,23,25-hexaazaoctacosane-22,26,28- tricarboxylic acid [CHX-A″-DTPA-DUPA-Pep]”, the Kd is at most 14.7 nM.
